Test results reported in patent US8642770B2, “Indole derivative” (Takeda Pharmaceutical Company Limited, priority 2010, dated 2014).

SMILES	melting point
Cc1c(CN[C@H]2CC[C@](C)(O)CC2)n(C)c2ccc(NC(=O)c3ccc(OCC4CC4)cc3)cc12 [Example 42, 4-(cyclopropylmethoxy)-N-(2-{[(trans-4-hydroxy-4-methylcyclohexyl)amino]methyl}-1,3-dimethyl-1H-indol-5-yl)benzamide]	191 °C
Cc1c(NC(=O)c2ccc(OCC3CC3)cc2)ccc2[nH]c(CNCC3CCOCC3)cc12 [Example 43, 4-(cyclopropylmethoxy)-N-(4-methyl-2-{[(tetrahydro-2H-pyran-4-ylmethyl)amino]methyl}-1H-indol-5-yl)benzamide]	181 to 182 °C
Cc1c(NC(=O)c2ccc(OCC3CC3)cc2)ccc2[nH]c(CNCC(C)(C)O)cc12 [Example 44, 4-(cyclopropylmethoxy)-N-(2-{[(2-hydroxy-2-methylpropyl)amino]methyl}-4-methyl-1H-indol-5-yl)benzamide]	186 °C
Cc1c(NC(=O)c2ccc(OCC3CC3)cc2)ccc2[nH]c(CNC3CCCC3)cc12 [Example 45, N-{2-[(cyclopentylamino)methyl]-4-methyl-1H-indol-5-yl}-4-(cyclopropylmethoxy)benzamide]	207 to 208 °C
Cc1c(NC(=O)c2ccc(OC[C@@H]3CCCO3)cc2)ccc2[nH]c(CNCC3CCOCC3)cc12 [Example 47, N-(4-methyl-2-{[(tetrahydro-2H-pyran-4-ylmethyl)amino]methyl}-1H-indol-5-yl)-4-[(2S)-tetrahydrofuran-2-ylmethoxy]benzamide]	166 to 167 °C
Cc1c(NC(=O)c2ccc(OC[C@@H]3CCCO3)cc2)ccc2[nH]c(CNCC(C)(C)O)cc12 [Example 48, N-(2-{[(2-hydroxy-2-methylpropyl)amino]methyl}-4-methyl-1H-indol-5-yl)-4-[(2S)-tetrahydrofuran-2-ylmethoxy]benzamide]	169 to 170 °C
Cc1c(NC(=O)c2ccc(OC[C@@H]3CCCO3)cc2)ccc2[nH]c(CNC3CCCC3)cc12 [Example 49, N-{2-[(cyclopentylamino)methyl]-4-methyl-1H-indol-5-yl}-4-[(2S)-tetrahydrofuran-2-ylmethoxy]benzamide]	191 to 192 °C
Cc1c(NC(=O)c2ccc(OC[C@@H]3CCCO3)cc2)ccc2c1cc(CNCC(C)(C)O)n2C [Example 52, N-(2-{[(2-hydroxy-2-methylpropyl)amino]methyl}-1,4-dimethyl-1H-indol-5-yl)-4-[(2S)-tetrahydrofuran-2-ylmethoxy]benzamide]	160 to 162 °C
Cc1c(NC(=O)c2ccc(OC[C@@H]3CCCO3)cc2)ccc2c1cc(CNCC(C)C)n2C [Example 54, N-(1,4-dimethyl-2-{[(2-methylpropyl)amino]methyl}-1H-indol-5-yl)-4-[(2S)-tetrahydrofuran-2-ylmethoxy]benzamide]	162 °C
Cc1c(NC(=O)c2ccc(OC[C@@H]3CCCO3)cc2)ccc2c1cc(CNC1CCCC1)n2C [Example 56, N-{2-[(cyclopentylamino)methyl]-1,4-dimethyl-1H-indol-5-yl}-4-[(2S)-tetrahydrofuran-2-ylmethoxy]benzamide]	189 °C
CCCNCc1cc2c(C)c(NC(=O)c3ccc(OC[C@@H]4CCCO4)cc3)ccc2n1C [Example 57, N-{1,4-dimethyl-2-[(propylamino)methyl]-1H-indol-5-yl}-4-[(2S)-tetrahydrofuran-2-ylmethoxy]benzamide]	225 °C
Cc1c(NC(=O)c2ccc(OC[C@@H]3CCCO3)cc2)ccc2c1cc(CN1CCC(C)(O)CC1)n2C [Example 58, N-{2-[(4-hydroxy-4-methylpiperidin-1-yl)methyl]-1,4-dimethyl-1H-indol-5-yl}-4-[(2S)-tetrahydrofuran-2-ylmethoxy]benzamide]	210 °C
Cc1c(NC(=O)c2ccc(OC[C@@H]3CCCO3)cc2F)ccc2c1cc(CN[C@H]1CC[C@](C)(O)CC1)n2C [Example 59, 2-fluoro-N-(2-{[(trans-4-hydroxy-4-methylcyclohexyl)amino]methyl}-1,4-dimethyl-1H-indol-5-yl)-4-[(2S)-tetrahydrofuran-2-ylmethoxy]benzamide]	124 °C
Cc1c(NC(=O)c2ccc(OC[C@@H]3CCCO3)cc2F)ccc2c1cc(CNCC(C)C)n2C [Example 61, N-(1,4-dimethyl-2-{[(2-methylpropyl)amino]methyl}-1H-indol-5-yl)-2-fluoro-4-[(2S)-tetrahydrofuran-2-ylmethoxy]benzamide]	104 to 105 °C
Cc1c(NC(=O)c2ccc(OC[C@@H]3CCCO3)cc2F)ccc2c1cc(CNCC1CCOCC1)n2C [Example 62, N-(1,4-dimethyl-2-{[(tetrahydro-2H-pyran-4-ylmethyl)amino]methyl}-1H-indol-5-yl)-2-fluoro-4-[(2S)-tetrahydrofuran-2-ylmethoxy]benzamide]	149 °C
Cc1c(NC(=O)c2ccc(OCC3CC3)cc2)ccc2cc(CNCC(C)C)[nH]c12 [Example 64, 4-(cyclopropylmethoxy)-N-(7-methyl-2-{[(2-methylpropyl)amino]methyl}-1H-indol-6-yl)benzamide]	176 to 177 °C

SMILES	melting point
Cc1c(NC(=O)c2ccc(OCC3CC3)cc2)ccc2cc(CNCC(C)(C)C)[nH]c12 [Example 65, 4-(cyclopropylmethoxy)-N-(2-{[(2,2-dimethylpropyl)amino]methyl}-7-methyl-1H-indol-6-yl)benzamide]	199 °C
Cc1c(NC(=O)c2ccc(OCC3CC3)cc2)ccc2cc(CNCC3CCOCC3)[nH]c12 [Example 66, 4-(cyclopropylmethoxy)-N-(7-methyl-2-{[(tetrahydro-2H-pyran-4-ylmethyl)amino]methyl}-1H-indol-6-yl)benzamide]	167 to 168 °C
Cc1c(NC(=O)c2ccc(OCC3CC3)cc2)ccc2cc(CN3CCC(C)(O)CC3)[nH]c12 [Example 68, 4-(cyclopropylmethoxy)-N-{2-[(4-hydroxy-4-methylpiperidin-1-yl)methyl]-7-methyl-1H-indol-6-yl}benzamide]	195 °C
Cc1c(NC(=O)c2ccc(OC[C@@H]3CCCO3)cc2)ccc2cc(CNCC(C)(C)C)[nH]c12 [Example 69, N-(2-{[(2,2-dimethylpropyl)amino]methyl}-7-methyl-1H-indol-6-yl)-4-[(2S)-tetrahydrofuran-2-ylmethoxy]benzamide]	168 °C
Cc1c(NC(=O)c2ccc(OC[C@@H]3CCCO3)cc2)ccc2cc(CNCC(C)C)[nH]c12 [Example 72, N-(7-methyl-2-{[(2-methylpropyl)amino]methyl}-1H-indol-6-yl)-4-[(2S)-tetrahydrofuran-2-ylmethoxy]benzamide]	159 °C
Cc1c(NC(=O)c2ccc(OC[C@@H]3CCCO3)cc2)ccc2cc(CNC3CCCC3)[nH]c12 [Example 73, N-{2-[(cyclopentylamino)methyl]-7-methyl-1H-indol-6-yl}-4-[(2S)-tetrahydrofuran-2-ylmethoxy]benzamide]	159 to 163 °C
Cc1c(NC(=O)c2ccc(OC[C@@H]3CCCO3)cc2F)ccc2cc(CNCC(C)(C)O)[nH]c12 [Example 76, 2-fluoro-N-(2-{[(2-hydroxy-2-methylpropyl)amino]methyl}-7-methyl-1H-indol-6-yl)-4-[(2S)-tetrahydrofuran-2-ylmethoxy]benzamide]	148 to 149 °C
Cc1c(NC(=O)c2ccc(OC[C@@H]3CCCO3)cc2F)ccc2cc(CN[C@H]3CC[C@](C)(O)CC3)[nH]c12 [Example 77, 2-fluoro-N-(2-{[(trans-4-hydroxy-4-methylcyclohexyl)amino]methyl}-7-methyl-1H-indol-6-yl)-4-[(2S)-tetrahydrofuran-2-ylmethoxy]benzamide]	152 to 153 °C
Cc1c(NC(=O)c2ccc(OCC3CC3)cc2)ccc2cc(CN[C@H]3CC[C@](C)(O)CC3)n(C)c12 [Example 79, 4-(cyclopropylmethoxy)-N-(2-{[(trans-4-hydroxy-4-methylcyclohexyl)amino]methyl}-1,7-dimethyl-1H-indol-6-yl)benzamide]	167 °C
Cc1c(NC(=O)c2ccc(OCC3CC3)cc2)ccc2cc(CN3CCC(C)(O)CC3)n(C)c12 [Example 80, 4-(cyclopropylmethoxy)-N-{2-[(4-hydroxy-4-methylpiperidin-1-yl)methyl]-1,7-dimethyl-1H-indol-6-yl}benzamide]	152 to 155 °C
Cc1c(NC(=O)c2ccc(OC[C@@H]3CCCO3)cc2)ccc2cc(CNCC(C)(C)C)n(C)c12 [Example 81, N-(2-{[(2,2-dimethylpropyl)amino]methyl}-1,7-dimethyl-1H-indol-6-yl)-4-[(2S)-tetrahydrofuran-2-ylmethoxy]benzamide]	201 °C
Cc1c(NC(=O)c2ccc(OC[C@@H]3CCCO3)cc2)ccc2cc(CNCC(C)(C)O)n(C)c12 [Example 82, N-(2-{[(2-hydroxy-2-methylpropyl)amino]methyl}-1,7-dimethyl-1H-indol-6-yl)-4-[(2S)-tetrahydrofuran-2-ylmethoxy]benzamide]	197 to 200 °C
Cc1c(NC(=O)c2ccc(OC[C@@H]3CCCO3)cc2)ccc2cc(CNCC(C)C)n(C)c12 [Example 85, N-(1,7-dimethyl-2-{[(2-methylpropyl)amino]methyl}-1H-indol-6-yl)-4-[(2S)-tetrahydrofuran-2-ylmethoxy]benzamide]	183 °C
Cc1c(NC(=O)c2ccc(OC[C@@H]3CCCO3)cc2)ccc2cc(CN3CCC(C)(O)CC3)n(C)c12 [Example 87, N-{2-[(4-hydroxy-4-methylpiperidin-1-yl)methyl]-1,7-dimethyl-1H-indol-6-yl}-4-[(2S)-tetrahydrofuran-2-ylmethoxy]benzamide]	140 to 141 °C
Cc1c(NC(=O)c2ccc(OC[C@@H]3CCCO3)cc2F)ccc2cc(CNCC(C)(C)O)n(C)c12 [Example 89, 2-fluoro-N-(2-{[(2-hydroxy-2-methylpropyl)amino]methyl}-1,7-dimethyl-1H-indol-6-yl)-4-[(2S)-tetrahydrofuran-2-ylmethoxy]benzamide]	132 to 133 °C
Cc1c(NC(=O)c2ccc(C#CC3(O)CC3)cc2)ccc2cc(CNCC(C)C)n(C)c12 [Example 90, N-(1,7-dimethyl-2-{[(2-methylpropyl)amino]methyl}-1H-indol-6-yl)-4-[(1-hydroxycyclopropyl)ethynyl]benzamide]	186 °C
